Assay results taken from patent US8569372B2, “Method for preventing or treating a disease, disorder or condition induced by retina ischemia” (priority 2011, dated 2013).

Key:
Type in all cases: in vivo, Wistar rats
[1] = system: MMP-9 mRNA; assay: Real-time PCR of retinal mRNA after ischaemia/reperfusion: MMP-9; details: 100 μM SAC pre-treatment, 24 hours after I/R; control 0.46±0.15, vehicle 1.97±0.38; n=6
Protocol: (§1) The rats (200-250 g) were anaesthetized and placed in a stereotaxic frame. The anterior chamber of one eye was cannulated with a 30-gauge needle connected to a 0.9% saline reservoir; this caused a high IOP (HIOP) of 120 mmHg for 60 minutes. Eye fundus whitening and a low ERG response confirmed induction of an ischaemic insult. A sham procedure was carried out on the controls. Drug administration involved the pre-administration (15-minute before 60-minute HIOP induced retinal ischaemia) of SAC (25, 50, 100 μM) or vehicle (saline; control). The ischemic eye of each test rat was treated with or without a single intravitreous injection of 5 μl of the test compound. […] The levels of Thy-1, HIF-1 Alpha, VEGF and MMP-9 mRNAs present in the retinas were determined using a real-time PCR technique. […] Relative quantification (a comparative method) was performed using the house keeping gene Beta-actin as the internal standard. This process allows the normalized quantification of the mRNA target (Ct) and takes into account the differences in the amount of total RNA added to each reaction (ΔCt). The relative HIF-1 Alpha/VEGF/MMP-9 expression changes were calculated as fold changes relative to the control with respect to the calibrator (ΔΔCt), which was represented by the control retina. […] The data obtained for each treatment were pooled, and a total percentage change relative to the control was calculated. […]

[2] = system: non-ischaemic (normal) eye; assay: Flash ERG b-wave of the non-ischaemic (normal) eye given SAC (adverse effects); details: 100 μM SAC, n=3
Protocol: Drug administration involved the pre-administration (15-minute before 60-minute HIOP induced retinal ischaemia) of SAC (25, 50, 100 μM) or vehicle (saline; control). The ischemic eye of each test rat was treated with or without a single intravitreous injection of 5 μl of the test compound. In addition, SAC (100 μM) was administered to the non-ischaemic eye (normal) to see whether SAC has any adverse effects. In both cases, the paired normal eye was untreated.
Flash ERG recordings were performed on all rats before retinal ischaemia (day 0), as well as at 1, 3, 5, and 7 days after ischaemia and treatment with or without the defined chemicals. The animals were dark adapted and anaesthetized to do this. A strobe was placed 2 cm in front of the animal to provide a stimulus of 0.5 Hz. Fifteen consecutive responses were recorded at two-second intervals and at 10 kHz; the responses were amplified and averaged using an amplifier P511/regulated power supply RPS 107/stimulator PS22 (Grass-Telefactor; Astro-Med Inc., West Warwick, R.I., USA). For comparative purposes, the b-wave ratio, namely the b-wave amplitude of the ischaemic/sham-operation eye or the untreated/SAC-treated non-ischaemic (normal) eye as compared with that of the contralateral normal eye, was calculated.

[3] = system: VEGF mRNA; assay: Real-time PCR of retinal mRNA after ischaemia/reperfusion: VEGF; details: 100 μM SAC pre-treatment, 24 hours after I/R; control 0.36±0.07, vehicle 1.10±0.20; n=6
Protocol: as §1

[4] = system: cholinergic amacrine cells (ChAT immunoreactivity); assay: ChAT immunofluorescence of the retina after ischaemia/reperfusion; details: 100 μM SAC pre-treatment
Protocol: The rats (200-250 g) were anaesthetized and placed in a stereotaxic frame. The anterior chamber of one eye was cannulated with a 30-gauge needle connected to a 0.9% saline reservoir; this caused a high IOP (HIOP) of 120 mmHg for 60 minutes. Eye fundus whitening and a low ERG response confirmed induction of an ischaemic insult. A sham procedure was carried out on the controls. Drug administration involved the pre-administration (15-minute before 60-minute HIOP induced retinal ischaemia) of SAC (25, 50, 100 μM) or vehicle (saline; control). The ischemic eye of each test rat was treated with or without a single intravitreous injection of 5 μl of the test compound. In addition, SAC (100 μM) was administered to the non-ischaemic eye (normal) to see whether SAC has any adverse effects. In both cases, the paired normal eye was untreated. The rats were sacrificed and intracardially perfused with 0.9% normal saline (w/v). Then the rat retinas were removed, fixed with 4% (w/v) paraformaldehyde for 45 minutes and then transferred to 30% sucrose for cryosectioning. Sampling was carried out one or seven days after the sham-operation or induction of retinal ischaemia. […] The retinal sections were examined using a fluorescence microscope (Olympus BX61, Center Valley, Pa., USA).

## C=CCSC[C@H](N)C(=O)O [SAC, S-allyl L-cysteine]
[1]
  MMP-9 mRNA ratio in the retina: 0.41±0.15
[2]; day 0
  b-wave amplitude (ratio) of the non-ischemic (normal) eye vs. the fellow normal eye: 1.11±0.05
[2]; day 1
  b-wave amplitude (ratio) of the non-ischemic (normal) eye vs. the fellow normal eye: 1.05±0.06
[2]; day 5
  b-wave amplitude (ratio) of the non-ischemic (normal) eye vs. the fellow normal eye: 1.06±0.12
[2]; day 7
  b-wave amplitude (ratio) of the non-ischemic (normal) eye vs. the fellow normal eye: 0.91±0.09
[2]; days 0 to 7
  adverse effect on the b-wave amplitude (ratio) of the non-ischemic (normal) eye: no significant adverse effect
[3]
  VEGF mRNA ratio in the retina: 0.50±0.06
[4]; 1 day after I/R, sham 39±3, vehicle 14±1
  ChAT immunopositive amacrine cell bodies per field: 26±2 per field
[4]; 7 days after I/R, sham 38±3, vehicle 10±5
  ChAT immunopositive amacrine cell bodies per field: 24±5 per field
